Test results as given in ChEMBL document CHEMBL4411335, “Identification and Optimization of Novel Small c-Abl Kinase Activators Using Fragment and HTS Methodologies” (J Med Chem, 2019).
Converted amounts (≈) assume the structure as drawn.

Legend:
[1] = Kinetic solubility of the compound at pH 7.4 after 1 hr by CLND-based assay; type: physicochemical; details: buffer, read-out: Kinetic_solubility
[2] = Permeability of the compound at […] after 3 hrs by artificial membrane permeability assay; type: ADME; details: PAMPA; read-out: permeability
[3] = molecular target: Tyrosine-protein kinase ABL1 (Homo sapiens, UniProt P00519, D382N); test: Displacement of Myr-GQQPGKVLGDQRRPSL(K-TAMRA)G-amide from N-terminal-truncated human c-ABL D382N mutant (46 to 534 residues) after 30 mins by fluorescence polarization binding assay
Tyrosine-protein kinase ABL1 (Homo sapiens, UniProt P00519, D382N), sequence (P00519 as listed by the source D382N): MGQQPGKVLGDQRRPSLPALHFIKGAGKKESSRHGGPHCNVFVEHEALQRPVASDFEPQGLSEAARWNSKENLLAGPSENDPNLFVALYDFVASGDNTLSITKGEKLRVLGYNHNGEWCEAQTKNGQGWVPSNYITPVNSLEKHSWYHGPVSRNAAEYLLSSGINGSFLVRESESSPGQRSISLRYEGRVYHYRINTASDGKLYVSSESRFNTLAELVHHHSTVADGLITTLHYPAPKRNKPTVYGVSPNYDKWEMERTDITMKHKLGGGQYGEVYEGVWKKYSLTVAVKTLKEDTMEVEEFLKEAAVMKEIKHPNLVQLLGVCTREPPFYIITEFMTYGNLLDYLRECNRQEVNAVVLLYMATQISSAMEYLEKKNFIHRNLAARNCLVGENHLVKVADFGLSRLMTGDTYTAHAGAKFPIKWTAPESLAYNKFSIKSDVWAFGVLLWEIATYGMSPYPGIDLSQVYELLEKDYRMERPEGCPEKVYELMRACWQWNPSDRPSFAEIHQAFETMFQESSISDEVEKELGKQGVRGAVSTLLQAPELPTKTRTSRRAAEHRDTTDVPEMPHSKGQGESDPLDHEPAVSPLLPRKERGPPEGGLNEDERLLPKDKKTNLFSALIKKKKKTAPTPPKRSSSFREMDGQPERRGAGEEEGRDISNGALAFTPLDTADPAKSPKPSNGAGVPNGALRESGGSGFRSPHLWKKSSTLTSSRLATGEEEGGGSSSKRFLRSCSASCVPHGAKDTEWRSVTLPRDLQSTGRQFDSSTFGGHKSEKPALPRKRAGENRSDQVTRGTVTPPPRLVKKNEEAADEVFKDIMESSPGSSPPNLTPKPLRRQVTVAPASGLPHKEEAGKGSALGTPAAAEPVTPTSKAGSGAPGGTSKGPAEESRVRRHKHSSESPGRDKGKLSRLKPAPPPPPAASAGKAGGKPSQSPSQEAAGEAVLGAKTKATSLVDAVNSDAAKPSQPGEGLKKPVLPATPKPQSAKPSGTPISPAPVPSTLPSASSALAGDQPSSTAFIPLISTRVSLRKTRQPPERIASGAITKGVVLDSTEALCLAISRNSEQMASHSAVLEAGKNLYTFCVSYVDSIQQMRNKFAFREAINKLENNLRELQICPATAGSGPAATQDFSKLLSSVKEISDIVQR

[4] = molecular target: T1, Tyrosine-protein kinase ABL1 (Homo sapiens, UniProt P00519); test: Activation of full length human 6His-tagged c-Abl expressed in baculovirus expression system using abltide as substrate after 2 hrs by IMAP assay; details: for EC50 for c-Abl activation: read-out: pIC50 (converted)
T1 sequence (P00519 whole entry): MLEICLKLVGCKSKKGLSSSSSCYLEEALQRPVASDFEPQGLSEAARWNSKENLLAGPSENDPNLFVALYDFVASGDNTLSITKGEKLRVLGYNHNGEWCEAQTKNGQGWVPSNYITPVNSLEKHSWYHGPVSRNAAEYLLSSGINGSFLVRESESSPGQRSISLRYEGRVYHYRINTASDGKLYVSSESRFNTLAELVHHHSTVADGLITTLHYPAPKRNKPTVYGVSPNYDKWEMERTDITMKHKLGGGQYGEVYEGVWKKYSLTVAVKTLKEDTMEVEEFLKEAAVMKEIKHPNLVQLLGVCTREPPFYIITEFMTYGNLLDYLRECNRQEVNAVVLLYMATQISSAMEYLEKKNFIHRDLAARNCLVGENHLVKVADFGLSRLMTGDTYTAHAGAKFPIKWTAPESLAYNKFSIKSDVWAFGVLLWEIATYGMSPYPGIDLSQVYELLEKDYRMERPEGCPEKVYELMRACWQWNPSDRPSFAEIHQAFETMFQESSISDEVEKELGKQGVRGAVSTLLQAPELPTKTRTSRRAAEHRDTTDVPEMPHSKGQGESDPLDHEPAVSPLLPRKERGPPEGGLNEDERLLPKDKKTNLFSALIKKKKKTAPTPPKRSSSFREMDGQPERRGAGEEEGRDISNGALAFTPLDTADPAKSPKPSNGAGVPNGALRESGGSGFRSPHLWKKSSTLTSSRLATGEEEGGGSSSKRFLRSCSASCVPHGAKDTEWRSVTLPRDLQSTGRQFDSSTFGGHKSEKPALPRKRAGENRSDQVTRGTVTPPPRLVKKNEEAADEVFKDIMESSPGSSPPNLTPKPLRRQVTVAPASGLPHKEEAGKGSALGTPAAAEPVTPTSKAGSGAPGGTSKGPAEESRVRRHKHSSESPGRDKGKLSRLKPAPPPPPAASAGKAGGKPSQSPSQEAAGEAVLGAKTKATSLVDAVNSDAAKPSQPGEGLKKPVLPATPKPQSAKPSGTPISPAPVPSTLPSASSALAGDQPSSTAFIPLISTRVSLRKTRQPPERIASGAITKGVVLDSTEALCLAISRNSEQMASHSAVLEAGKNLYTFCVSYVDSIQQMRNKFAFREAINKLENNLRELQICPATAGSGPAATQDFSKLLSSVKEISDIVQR

[5] = molecular target: T1, Tyrosine-protein kinase ABL1; test: Induction of human c-ABL phosphorylation at Y245/Y412 residues in bacmam-induced HEK-MSR2 cell lysates by in-cell Western blot analysis; type: subcellular, Lysate

| SMILES | solubility kinetic at 1 h [1] | Papp at 3 h [2] | IC50 [3] | EC50 for c-Abl activation [4] | EC50 [5] | EC50 [4] |
| --- | --- | --- | --- | --- | --- | --- |
| CC(=O)NC1=NN(c2ccc(Cl)c(Cl)c2)[C@H](C)C1 | 173 µM (≈ 49.5 µg/mL) | 41 ×10⁻⁶ cm/s | 1580 nM | 2000 nM | 10000 nM |  |
| NC1=NN(c2ccc(Cl)c(Cl)c2)CC1 | 69 µM (≈ 15.9 µg/mL) | 32 ×10⁻⁶ cm/s | 2000 nM | 6310 nM | 12600 nM |  |
| O=C1CCCC(C(=O)NC2=NN(c3ccc(Cl)c(Cl)c3)CC2)N1 (configuration not stated) | 416 µM (≈ 148 µg/mL) | 25 ×10⁻⁶ cm/s | 501 nM | 398 nM | 2510 nM |  |
| CC(=O)Nc1nc(-c2ccc(Br)s2)cs1 | 16 µM (≈ 4.85 µg/mL) | 21 ×10⁻⁶ cm/s | 5010 nM | 12600 nM | > 50100 nM |  |
| N#CCC(=O)Nc1nsc(-c2ccc(Cl)c(Cl)c2)n1 | 69 µM (≈ 21.6 µg/mL) | 28 ×10⁻⁶ cm/s | 2510 nM | 2000 nM | 15800 nM |  |
| O=C(NC1=NN(c2ccc(Cl)c(Cl)c2)CC1)c1cccnn1 | 67 µM (≈ 22.5 µg/mL) |  | 794 nM | 5010 nM | > 50100 nM |  |
| CC(=O)Nc1nc(-c2ccc(F)c(Cl)c2)cs1 | 10 µM (≈ 2.71 µg/mL) | 9.4 ×10⁻⁶ cm/s | 2510 nM | 39800 nM | > 50100 nM |  |
| CC(=O)Nc1nc(-c2ccc(Cl)c(C)c2)cs1 | 1 µM (≈ 0.267 µg/mL) | 14 ×10⁻⁶ cm/s | 794 nM | 31600 nM | > 50100 nM |  |
| N#CCC(=O)Nc1nc(-c2ccc(Cl)c(Cl)c2)c[nH]1 | 14 µM (≈ 4.13 µg/mL) | 31 ×10⁻⁶ cm/s | 631 nM | 1580 nM | 3160 nM |  |
| CC(=O)N[C@@H](C)C(=O)NC1=NN(c2ccc(Cl)c(Cl)c2)CC1 | 58 µM (≈ 19.9 µg/mL) | 34 ×10⁻⁶ cm/s | 1260 nM | 1580 nM | 7940 nM |  |
| N#CCC(=O)Nc1cccc(-c2ccc(Cl)c(Cl)c2)n1 | 1 µM (≈ 0.306 µg/mL) | 21.5 ×10⁻⁶ cm/s | 1580 nM | 12600 nM | > 50100 nM |  |
| O=C(NC1=NN(c2ccc(Cl)c(Cl)c2)CC1)c1ccccn1 | 11 µM (≈ 3.69 µg/mL) | 35 ×10⁻⁶ cm/s | 2000 nM | 2000 nM | > 50100 nM |  |
| N#CCC(=O)Nc1nc(-c2ccc(Cl)c(Cl)c2)ns1 | 370 µM (≈ 116 µg/mL) | 23 ×10⁻⁶ cm/s | 1000 nM | 3160 nM | 10000 nM |  |
| CC(=O)Nc1nc(-c2ccc(Cl)cc2)cs1 | 1 µM (≈ 0.253 µg/mL) | 25 ×10⁻⁶ cm/s | 10000 nM | 31600 nM |  |  |
| N#CCC(=O)Nc1nc(-c2ccc(Cl)c(Cl)c2)cs1 | 57 µM (≈ 17.8 µg/mL) | 14.2 ×10⁻⁶ cm/s | 501 nM | 1260 nM | 5010 nM |  |
| CC(=O)Nc1nc(-c2nc(C)no2)cs1 | 186 µM (≈ 41.7 µg/mL) | 25 ×10⁻⁶ cm/s | > 50100 nM | > 100000 nM |  |  |
| CC(=O)NC1=NN(c2ccc(Cl)c(Cl)c2)C[C@@H]1C | 32 µM (≈ 9.16 µg/mL) | 42 ×10⁻⁶ cm/s | 398 nM |  | 631 nM |  |
| CC(=O)NC1=NN(c2ccc(Cl)c(Cl)c2)C[C@H]1C | 36 µM (≈ 10.3 µg/mL) | 38 ×10⁻⁶ cm/s | 3980 nM |  | 20000 nM |  |
| CC(=O)Nc1nc(-c2cccc(O)c2)cs1 | 103 µM (≈ 24.1 µg/mL) | 27 ×10⁻⁶ cm/s | 12600 nM | > 50100 nM |  |  |
| CC(=O)Nc1nc(-c2cccc(Cl)c2)cs1 | 2 µM (≈ 0.505 µg/mL) | 34 ×10⁻⁶ cm/s | > 50100 nM | 7940 nM |  |  |
| O=C1NC(=O)C(c2cn(-c3ccccc3)nc2-c2ccc(F)cc2)N1 (configuration not stated) | > 395 µM | 35 ×10⁻⁶ cm/s | 398 nM |  | 794 nM |  |
| Cn1cnnc1SCC(=O)Nc1nc(-c2ccc(Cl)c(Cl)c2)cs1 |  |  | 794 nM |  | 20000 nM | 10000 nM |
| CC(=O)NC1=NN(c2ccc(Cl)c(Cl)c2)CC1C (racemic) | 49 µM (≈ 14 µg/mL) | 40.5 ×10⁻⁶ cm/s | 794 nM |  | 501 nM |  |

Continued by falling IC50 [3], values first:

| solubility kinetic at 1 h [1] | Papp at 3 h [2] | IC50 [3] | EC50 for c-Abl activation [4] | EC50 [5] | EC50 [4] | SMILES |
| --- | --- | --- | --- | --- | --- | --- |
| 8 µM (≈ 2.69 µg/mL) | 35 ×10⁻⁶ cm/s | 501 nM | 251 nM | 631 nM |  | O=C(NC1=NN(c2ccc(Cl)c(Cl)c2)CC1)c1cncnc1 |
| 125 µM (≈ 35.8 µg/mL) | 42 ×10⁻⁶ cm/s | 398 nM | 501 nM | 10000 nM |  | CC(=O)NC1=NN(c2ccc(Cl)c(Cl)c2)[C@@H](C)C1 |
| 202 µM (≈ 60 µg/mL) | 32 ×10⁻⁶ cm/s | 398 nM | 251 nM | 1000 nM |  | N#CCC(=O)NC1=NN(c2ccc(Cl)c(Cl)c2)CC1 |
|  |  | 398 nM | 631 nM | 3160 nM |  | O=C(NC1=NN(c2ccc(Cl)c(Cl)c2)CC1)c1c(F)cccc1F |
| 13 µM (≈ 4.59 µg/mL) | 57 ×10⁻⁶ cm/s | 398 nM | 126 nM | 1260 nM |  | O=C(NC1=NN(c2ccc(Cl)c(Cl)c2)CC1)c1cccnc1F |
| < 1 µM | 19.6 ×10⁻⁶ cm/s | 316 nM | 2510 nM | 31600 nM |  | CC(=O)Nc1nc(-c2ccc(Cl)c(Cl)c2)cs1 |
| 5 µM (≈ 1.93 µg/mL) | < 3 ×10⁻⁶ cm/s | 316 nM | 251 nM | 5010 nM |  | O=C(Nc1nc(-c2ccc(Cl)c(Cl)c2)cs1)c1c(F)cccc1F |
| 9 µM (≈ 3.15 µg/mL) | 42 ×10⁻⁶ cm/s | 316 nM | 20 nM | 100 nM |  | C[C@H]1CN(c2ccc(Cl)c(Cl)c2)N=C1NC(=O)c1cncnc1 |
| 4 µM (≈ 1.34 µg/mL) | 30.5 ×10⁻⁶ cm/s | 251 nM | 158 nM | 631 nM |  | O=C(NC1=NN(c2ccc(Cl)c(Cl)c2)CC1)c1cccnc1 |
| 3 µM (≈ 0.94 µg/mL) | 22.7 ×10⁻⁶ cm/s | 251 nM | 158 nM | > 50100 nM |  | O=C(Nc1nc(-c2ccc(Cl)c(Cl)c2)cs1)C1CC1 |
| 20 µM (≈ 7 µg/mL) | 37 ×10⁻⁶ cm/s | 200 nM | 398 nM | > 50100 nM |  | O=C(Nc1nc(-c2ccc(Cl)c(Cl)c2)cs1)c1cccnc1 |
| 36 µM (≈ 12.7 µg/mL) | 28 ×10⁻⁶ cm/s | 200 nM | 126 nM | 1580 nM |  | O=C(NC1=NN(c2ccc(Cl)c(Cl)c2)CC1)c1ccncc1F |
| 167 µM (≈ 63.3 µg/mL) | 33.5 ×10⁻⁶ cm/s | 158 nM | 100 nM | 3160 nM |  | O=C(NC1=NN(c2ccc(Cl)c(Cl)c2)CC1CCO)c1ccncc1 (racemic) |
| 12 µM (≈ 4.2 µg/mL) | 34 ×10⁻⁶ cm/s | 158 nM | 39.8 nM | 316 nM |  | Cc1ncncc1C(=O)NC1=NN(c2ccc(Cl)c(Cl)c2)CC1 |
| 2 µM (≈ 0.624 µg/mL) | 35 ×10⁻⁶ cm/s | 126 nM | 1580 nM | 15800 nM |  | N#CCC(=O)Nc1csc(-c2ccc(Cl)c(Cl)c2)n1 |
